Data on 34 molecules can be found in ChEMBL document CHEMBL2028040, “Malaria Box”.

Data set [1] relates to Trypanosoma brucei brucei. Briefly: MMV: Inhibition of Trypanosoma brucei brucei (Squib 427) (HAT in vitro). Type of data set: functional, organism-based.
For data set [2], the system named is Trypanosoma cruzi. Briefly: MMV: Inhibition of Trypanosoma cruzi (Tulahuen C4 LacZ) (Chagas in vitro). Type of data set: functional, organism-based.
The subject of data set [3] is Trypanosoma brucei rhodesiense. Briefly: MMV: Inhibition of Trypanosoma brucei rhodesiense (STIB 900) (HAT in vitro). Type of data set: functional, organism-based.
Data set [4] has as its system Plasmodium falciparum. Briefly: MMV: Inhibition of Plasmodium falciparum 3D7 at 5uM compound concentration. Type of data set: functional.
Data set [5] is described as follows: MMV: Cytotoxicity against human fibroblasts (MRC-5) cells. The following applies: MRC-5 cells (human fibroblasts).
Data set [6] deals with Leishmania infantum. Briefly: MMV: Inhibition of Leishmania infantum (MHOM/MA/BE/67) in vitro. The class given is functional, organism-based.

A word on the IC50: it is the concentration that inhibits the measured activity by half. The inhibition is the share of the control response that was lost under treatment. A higher inhibition goes with a strong effect. As to `O=C(Nc1ccc(Br)cc1)Nc1cccc(Cl)c1`, the IC50 in data set [1] was 4 µM; in data set [2] it was 5.21 µM; in data set [3] it was 3.09 µM; in data set [5] it was greater than 32 µM; in data set [6] it was 10.2 µM. Testing at 5 µM in data set [4] gave an inhibition of 94%.

Consider `COc1ccc(C(=O)Nc2ccc3nc(N4CCCCC4)cc(C)c3c2)cc1OC`, for which the IC50 in data set [1] was determined as 16.2 µM; in data set [2], 14.6 µM; in data set [3], 10.9 µM; in data set [5] it was 16.4 µM; in data set [6], 16.2 µM.

Consider `COc1cc2cc(C(=O)Nc3ccccc3)c(N)nc2cc1OC`, for which the IC50 in data set [1], in data set [2], in data set [3], in data set [5] and in data set [6] was greater than 32 µM each time.

`CC(=O)c1ccc(NC(=O)CSc2nc(-c3ccccc3Cl)ns2)cc1`: the IC50 in data set [1], in data set [2], in data set [3], in data set [5] and in data set [6] was greater than 32 µM throughout.

Consider `CCC(=O)Nc1nnc(Cc2ccc(OC)c(OC)c2)s1`, for which the IC50 in data set [1], in data set [2], in data set [3], in data set [5] and in data set [6] was greater than 32 µM each time. The inhibition at 5 µM in data set [4] turned out to be 47%.

In the case of `CCN1CCN(c2cc(C)c3cc(NC(=O)c4ccc(OC)c(OC)c4)ccc3n2)CC1`, the IC50 was 4.78 µM in data set [1]; 6.59 µM in data set [2]; 3.22 µM in data set [3]; 5.46 µM in data set [5]; 6.35 µM in data set [6].

Regarding `COc1ccc(-c2cn3c(C(=O)Nc4ccccc4Cl)c(-c4ccccc4)c4c3n2CCCC4)cc1`, the IC50 in data set [1] is 16.5 µM; in data set [2], 15 µM; in data set [3], 5 µM; in data set [5] it was greater than 32 µM; in data set [6] it was 16 µM. For the same molecule, in data set [4], at 5 µM the inhibition was 80%.

As to `Oc1ccc2ccccc2c1CNc1nc2ccccc2[nH]1`, the IC50 in data set [1] was 16.1 µM; in data set [2], greater than 32 µM; in data set [3], 8.65 µM; in data set [5], greater than 32 µM; in data set [6], greater than 32 µM. The molecule also came in with an inhibition at 5 µM in data set [4] of 83%.

For `COc1cccc(C(=O)Nc2ccc(-c3nc4ccccc4[nH]3)cc2)c1`, the IC50 in data set [1] was greater than 32 µM; in data set [2], greater than 32 µM; in data set [3] it was greater than 32 µM; in data set [5] it was greater than 32 µM; in data set [6] it was 16.2 µM. This molecule also returned an inhibition at 5 µM in data set [4] of 83%.

For `O=C(Nc1ccc(-c2nc3cc(NC(=O)c4ccc(Cl)cc4)ccc3[nH]2)cc1)c1ccc(Cl)cc1`, the IC50 in data set [1], in data set [2], in data set [3], in data set [5] and in data set [6] was greater than 32 µM each time.

In the case of `CCOc1cccc(C(=O)Nc2ccc(-c3nc4ccccc4[nH]3)cc2)c1`, the IC50 in data set [1] is greater than 32 µM; in data set [2], greater than 32 µM; in data set [3], greater than 32 µM; in data set [5], greater than 32 µM; in data set [6], 16.2 µM.

Regarding `CCOC(=O)c1cnc2ccc(OC)cc2c1Nc1ccc(N2CCN(C)CC2)cc1`, the IC50 in data set [1] was 32 µM; in data set [2], 4.13 µM; in data set [3], 3.82 µM; in data set [5], 13.9 µM; in data set [6] it was greater than 32 µM.

Consider `COc1ccc(C(=O)C(CCC(CNC(C)(C)C)C(=O)c2ccc(OC)cc2)CNC(C)(C)C)cc1` (stereo not given), for which the IC50 in data set [1] amounted to 1.02 µM; in data set [2], 4.15 µM; in data set [3], 1.65 µM; in data set [5] it was 10.3 µM; in data set [6], 0.846 µM. This molecule had an inhibition at 5 µM in data set [4] of 85%.

For `Cc1c(C)n(Cc2ccc(F)cc2)c2ccc(C(=O)NCc3ccco3)cc12`, the IC50 in data set [1] is 11 µM; in data set [2], greater than 32 µM; in data set [3], 15.4 µM; in data set [5] it was greater than 32 µM; in data set [6], greater than 32 µM. The molecule further gave an inhibition at 5 µM in data set [4] of 52%.

As for `CCN(CC)c1ccc(NC(=O)c2cccs2)cc1`, the IC50 in data set [1], in data set [2], in data set [3], in data set [5] and in data set [6] was greater than 32 µM in each case. The same molecule showed an inhibition at 5 µM in data set [4] of 88%.

For `CCOc1ccccc1NC(=O)CN1CCN(C(=O)c2ccco2)CC1`, the IC50 in data set [1], in data set [2], in data set [3], in data set [5] and in data set [6] was greater than 32 µM each time. In addition, the inhibition at 5 µM in data set [4] was 83%.

Consider `COc1ccc(-c2nonc2NC(=O)c2cccc(Cl)c2)cc1OC`, for which the IC50 in data set [1], in data set [2], in data set [3], in data set [5] and in data set [6] was greater than 32 µM each time.

As to `Cc1ccc(-c2nc3ccccc3o2)cc1NCc1cc(Cc2ccccc2)ccc1O`, the IC50 in data set [1] was greater than 32 µM; in data set [2] it was greater than 32 µM; in data set [3], greater than 32 µM; in data set [5], greater than 32 µM; in data set [6], 16.2 µM. The same molecule showed an inhibition at 5 µM in data set [4] of 64%.

For `O=C1CC(O)(C(F)(F)C(F)(F)F)Oc2ccccc21` (stereo not given), the IC50 in data set [1] is greater than 32 µM; in data set [2], 16.3 µM; in data set [3], 30.3 µM; in data set [5], 18.1 µM; in data set [6], greater than 32 µM. In data set [4], the inhibition at 5 µM is 95%.

As for `CCOc1cccc2sc(N(Cc3cccnc3)C(=O)C3CCCCC3)nc12`, the IC50 in data set [1] is 27 µM; in data set [2], 0.165 µM; in data set [3], 16 µM; in data set [5], greater than 32 µM; in data set [6], 19 µM. Besides, at 5 µM the inhibition in data set [4] was 94%.

For the molecule `COc1ccccc1CNC(=O)C1c2ccccc2C(=O)N(CC(C)C)C1c1cccs1` (stereo not given), the IC50 was greater than 32 µM in data set [1]; greater than 32 µM in data set [2]; 19.7 µM in data set [3]; greater than 32 µM in data set [5]; greater than 32 µM in data set [6]. Besides, the inhibition at 5 µM in data set [4] is 97%.

Take `CCN(CC)c1cc(C)c2cc(NC(=O)c3cccc(OC)c3)ccc2n1`: the 50% inhibitory concentration (IC50) stood at 14.3 µM in data set [1]; 13.7 µM in data set [2]; 0.679 µM in data set [3]; 15.3 µM in data set [5]; 16.2 µM in data set [6].

`COc1ccc(C(O)(CCC(C)C)C(CN2CCOCC2)c2ccc(Cl)cc2)cc1` (stereo not given): the IC50 in data set [1] turned out to be 3.85 µM; in data set [2], 4.26 µM; in data set [3] it was 4 µM; in data set [5] it was 10.8 µM; in data set [6], 4.76 µM. This molecule also returned an inhibition at 5 µM in data set [4] of 97%.

`Cc1ccc(NC(=O)Nc2cccc(Cl)c2)cc1F`: the IC50 in data set [1] is 5.81 µM; in data set [2], 6.29 µM; in data set [3], 4.03 µM; in data set [5], greater than 32 µM; in data set [6] it was greater than 32 µM. In data set [4], this molecule yielded an inhibition at 5 µM of 52%.

With `Oc1c(CN2CCN(c3ccccc3F)CC2)cc(Br)c2cccnc12`, the IC50 is 1.15 µM in data set [1]; 0.963 µM in data set [2]; 1.05 µM in data set [3]; 5.58 µM in data set [5]; greater than 32 µM in data set [6]. Further, the inhibition at 5 µM in data set [4] amounted to 91%.

Turning to `Oc1c2c(nc3cc(-c4ccccc4)nn13)CCCC2`, the IC50 in data set [1] was 12.8 µM; in data set [2], greater than 32 µM; in data set [3] it was 8 µM; in data set [5] it was greater than 32 µM; in data set [6], greater than 32 µM. In data set [4], this molecule came in with an inhibition at 5 µM of 77%.

Turning to `COc1ccc(C)c2sc(N(Cc3cccnc3)C(=O)c3ccc(C#N)cc3)nc12`, the IC50 was 14.6 µM in data set [1]; 2.32 µM in data set [2]; 16 µM in data set [3]; greater than 32 µM in data set [5]; greater than 32 µM in data set [6]. In data set [4], 5 µM produced 91% inhibition.

Consider `CCCCCCC(O)(c1ccc(F)cc1)C(CN1CCOCC1)c1ccccc1` (stereo not given), for which the IC50 in data set [1] is 16.2 µM; in data set [2] it was 4.78 µM; in data set [3], 12.5 µM; in data set [5], greater than 32 µM; in data set [6] it was 4.32 µM. The molecule further had an inhibition at 5 µM in data set [4] of 93%.

On to `Cc1ccc(C)c(-c2csc(Nc3ccc(C)c(C)c3)n2)c1`, for which the IC50 in data set [1] is greater than 32 µM; in data set [2], 19.3 µM; in data set [3], 22.8 µM; in data set [5], greater than 32 µM; in data set [6], greater than 32 µM. Also, the inhibition at 5 µM in data set [4] turned out to be 94%.

On to `CCOc1ccc(CCNC(=O)c2cccs2)cc1OCC`, for which the IC50 in data set [1], in data set [2], in data set [3], in data set [5] and in data set [6] was greater than 32 µM each time. The inhibition at 5 µM in data set [4] was 95%.

In the case of `CN(C)c1ccc(N=Cc2ccc(N3CCOCC3)cc2)cc1`, the IC50 in data set [1] was 13.3 µM; in data set [2] it was 17 µM; in data set [3] it was 3.51 µM; in data set [5] it was greater than 32 µM; in data set [6], 10.1 µM. In data set [4], 5 µM produced 96% inhibition.

Regarding `CCCCOc1ccc(C(=O)Nc2cc(C)on2)cc1`, the IC50 in data set [1], in data set [2], in data set [3], in data set [5] and in data set [6] was greater than 32 µM throughout. Besides, the inhibition at 5 µM in data set [4] was 73%.

For the molecule `CCN1CCN(c2c(C(=O)c3ccccc3)cnc3cc(OC)c(OC)cc23)CC1`, the IC50 was greater than 32 µM in data set [1]; greater than 32 µM in data set [2]; 17.9 µM in data set [3]; greater than 32 µM in data set [5]; greater than 32 µM in data set [6]. Also, in data set [4], testing at 5 µM gave an inhibition of 59%.

Turning to `CCCCN(CCCC)S(=O)(=O)c1ccc(NC(=O)c2ccco2)cc1`, the IC50 in data set [1] was greater than 32 µM; in data set [2], greater than 32 µM; in data set [3] it was 16.3 µM; in data set [5], greater than 32 µM; in data set [6] it was greater than 32 µM. The inhibition at 5 µM in data set [4] turned out to be 78%.
